One assay deals with T1, MAX:MXD1(MAD1).
T1 construct: full-length MXD1(MAD1) or full-length MAX cDNA; expressed in transfected cells; host or cells: COS-7
The assay can be described thus: GLuc MAD:MAX in COS-7 cells. In kind it is cell-based. Particulars: 12.5 µM. The procedure: The protein fragment complementation assay using the Gaussia luciferase has been described. 0.2–0.4 μg of each GLuc-construct (see Supplementary Information) together with 0.05–0.2 μg pCMV-Luc (Firefly luciferase) were transiently transfected into HEK293 or COS-7 cells in 6-well plates. 24 hours later cells were treated with compound (10–25 μM) or DMSO. After another 17 hours, the cells were harvested and lyzed in passive lysis buffer (Promega) supplemented with complete protease inhibitor (Roche). After 60 min incubation at room temperature 20 μM D-luciferin was added (substrate of Firefly luciferase) and luminescence was measured in a Lumat LB9501 (Berthold) or OmegaFluostar (BMG Labtech) luminometer. Directly after, Gaussia luciferase substrate Coelenterazine (Promega) was added to a final concentration of 20 μM in a mixture with “Stop n’ Glow” (Promega) and the luciferase activity was measured. The ratio between Gaussia and Firefly luciferase values were calculated and normalized to DMSO-treated control cells.
Supplementary Figure Legends
Supplemental Figure S1. Schematic presentations of MYC and MAX protein constructs. A) BiFC constructs MYC-YFP-N and MAX-YFP-C, containing full-length MYC and MAX fused with N-terminal and C-terminal fragments of yellow fluorescent protein (YFP), respectively 3.
In the MYC deletion mutant MYCΔbHLHZip-YFP-N, the bHLHZip domain, residues 352-432, has been truncated 3. B) Gaussia princeps Luciferase (GLuc) constructs MYC-GLuc-C and MAX-GLuc-N, containing full-length MYC and MAX fused with N-terminal and C-terminal fragments of GLuc, respectively. MYC was truncated at residue 411-432 in order to produce the deletion mutant MYCΔZ ip-GLuc-C. […]
Supplemental Figure S2. […] The cells were reseeded and treated with vehicle or 25 µM of each compound, after which fluorescence was measured 24 hours post-treatment and the YFP/CFP ratio calculated and normalized to DMSO-treated cells.
B) MAD:MAX GLuc assay. MAD-GLuc-C and MAX-GLuc-N constructs were cotransfected into COS-7 cells together with CMV-Luc and treated with MYCMIs (12.5 µM) and analyzed […]

Assay [1] concerns the target T2, endogenous MYC:MAX interaction (Homo sapiens, UniProt P01106).
T2 construct: endogenous in cells; host or cells: breast cancer cells; MCF7 named for the titration
Kind of assay: isPLA endogenous MYC:MAX in breast cancer cells (MCF7). In kind it is cell-based. As to conditions: 24 hours; for MYC:MAX isPLA signals, % of DMSO-treated controls: 10 μM, breast cancer cells; for pIC50: titration in MCF7 cells, read-out: IC50 for inhibition of MYC:MAX by isPLA. The procedure:
The isPLA assay has been described. Antibodies used are listed in Supplementary Information. […] Slides were washed in PBS with 0.05% Tween 20 and incubated in blocking buffer after which isPLA was performed using the Duolink® in situ PLA kit (Sigma-Aldrich) according to the manufacturer’s protocol. DNA was stained with DAPI. Incubation with primary antibodies were performed at +4 °C overnight. Images were taken using an Axiovert 200M inverted microscope (Zeiss) and fluorescent dots were quantified using semi-automated analysis in ImageJ (http://imagej.net) and averaged to number of dots per cell.

The test system of another assay is T3, FRA1:JUN.
T3 construct: endogenous in cells
The assay can be described thus: isPLA endogenous FRA1:JUN. Particulars: 10 μM. In kind it is cell-based, human. The procedure: The isPLA assay has been described. Antibodies used are listed in Supplementary Information. Briefly, cells were grown on collagen-coated chamber slides (Falcon), and treated with 1–10 μM of compounds, respectively, for 16 hours, then washed twice with PBS and fixed in ice cold methanol for 5–15 min at room temperature. Slides were washed in PBS with 0.05% Tween 20 and incubated in blocking buffer after which isPLA was performed using the Duolink® in situ PLA kit (Sigma-Aldrich) according to the manufacturer’s protocol. DNA was stained with DAPI. Incubation with primary antibodies were performed at +4 °C overnight. Images were taken using an Axiovert 200M inverted microscope (Zeiss) and fluorescent dots were quantified using semi-automated analysis in ImageJ (http://imagej.net) and averaged to number of dots per cell.

Another assay deals with T4, MYCbHLHZip:MAXbHLHZip (Homo sapiens, UniProt P01106).
T4 construct: 6xHis (N); made in house; host or cells: E. coli BL21 (DE3), pET28a
T4 sequence (P01106 367-447 limits assumed): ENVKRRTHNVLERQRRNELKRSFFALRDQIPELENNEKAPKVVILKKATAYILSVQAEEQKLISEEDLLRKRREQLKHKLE
Kind of assay: MST MYC:MAX heterodimer formation assay. Type of assay: binding. Particulars: for shift of MAX thermophoresis relative to DMSO (MYC:MAX MST): 50 µM compound, 1 µM MYCbHLHZip. The source says:
We next investigated the capacity of the small molecule inhibitors to directly target the MYC:MAX interaction in vitro. Two biophysical interaction assays, microscale thermophoresis (MST)[44] and surface plasmon resonance (SPR)[45], were developed using recombinant MYC and MAX proteins (Suppl. Fig. S1C) (manuscript in prep.). MST is based on the shift of fluorescent molecules moving in a temperature gradient (thermophoresis), which can be perturbed by interactions. In the MST MYC:MAX interaction assay, fluorescently labeled MAXbHLHZip was combined with MYCbHLHZip pre-mixed with compound.
MST was carried out on a Monolith NT.115 with blue/green filters, kindly provided by Luca Jovine, Karolinska Institutet Huddinge, according to manufacturer’s protocol (NanoTemper). MYCbHLHZip, MAXbHLHZip, BSA and BCL-XL recombinant proteins and compounds were diluted and titrated in PBS supplemented with 0.05% Triton-X-114 or 0.05% Tween-20. Titration of molecules was carried out in 16 PCR tubes into which a fixed concentration of fluorescent molecule was added. The mixture was applied to capillaries (standard treated, NanoTemper), and scanned in the Monolith NT.115 to measure initial fluorescence of molecule. MST was induced and fluorescence was measured during 40 seconds. Double measurements were carried out (MST power of 20% and 40%, or 40% and 60%) for each sample. Delta fluorescence or relative fluorescence of fluorescent molecule normalized to control vehicle was plotted against titrated molecule concentration. The protein labeling kit GREEN-NHS (NanoTemper) was used to label primary amines of proteins according to manufacture’s protocol.

From article PMC6030159 (Scientific Reports, 2018) come the findings set out here.

pIC50, pKd: −log10 of the molar value. Values joined by “and” are separate entries in the source; they are usually repeats but may differ in a detail not shown here. Identical values can stand only once.

T2 sequence (P01106 whole entry): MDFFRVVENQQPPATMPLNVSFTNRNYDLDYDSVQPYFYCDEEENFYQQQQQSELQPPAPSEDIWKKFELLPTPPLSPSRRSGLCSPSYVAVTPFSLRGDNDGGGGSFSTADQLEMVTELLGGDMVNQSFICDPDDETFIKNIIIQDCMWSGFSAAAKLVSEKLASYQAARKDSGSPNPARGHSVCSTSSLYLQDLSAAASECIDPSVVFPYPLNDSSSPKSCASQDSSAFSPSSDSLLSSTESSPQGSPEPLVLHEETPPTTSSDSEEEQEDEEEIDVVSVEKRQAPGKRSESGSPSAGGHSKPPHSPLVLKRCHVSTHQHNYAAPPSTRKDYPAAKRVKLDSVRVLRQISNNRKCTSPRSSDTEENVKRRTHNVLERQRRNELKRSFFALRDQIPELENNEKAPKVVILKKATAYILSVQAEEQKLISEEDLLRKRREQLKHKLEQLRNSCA

One may read the pIC50 as −log10 of the IC50, conventionally taken in molar units. As to `CCOc1ccc2nc3cc(/N=N/c4ccc(N)nc4N)ccc3c(N)c2c1` [MYCMI-6], the “effect on MAX:MXD1(MAD1) interaction (GLuc)” value (shortened to “effect … (GLuc)”) with MAX:MXD1(MAD1) is “did not significantly affect”. In assay [1], the “MYC:MAX isPLA signals, % of DMSO-treated controls” value (“MYC:MAX isPLA signals, %” for short) came out at 7%; the pIC50 is > 5.82 and 5.82. In addition, in the assay with FRA1:JUN, the “effect on FRA1:JUN interaction (isPLA)” value is “did not significantly affect”. Besides, the “shift of MAX thermophoresis relative to DMSO (MYC:MAX MST)” value on MYCbHLHZip:MAXbHLHZip is reported as “shifted MAX thermophoresis”. In addition, on MYCbHLHZip:MAXbHLHZip (titration with 1 µM MYCbHLHZip and labeled MAXbHLHZip, read-out: Kd of thermophoresis shift, MYC:MAX MST), the pKd was 5.37.

With `CCCCN(c1ccccc1)c1ncnc2c1cnn2C` [MYCMI-11], the “effect … (GLuc)” value in the assay with MAX:MXD1(MAD1) was “did not significantly affect”. In assay [1], the “MYC:MAX isPLA signals, %” value is listed as 23%; the pIC50 is ~5.22 and 5.22. The “effect on FRA1:JUN interaction (isPLA)” value in the assay on FRA1:JUN was “did not significantly affect”. The “shift of MAX thermophoresis relative to DMSO (MYC:MAX MST)” value on MYCbHLHZip:MAXbHLHZip was “less effective”.

For the molecule `O=C(O)/C=C/C(=O)Nc1cccc2c1-c1ccccc1C2=O` [MYCMI-14], the “effect … (GLuc)” value in the assay on MAX:MXD1(MAD1) is “did not significantly affect”. For the same molecule, in assay [1], the “MYC:MAX isPLA signals, %” value is recorded as 23%; the pIC50 was ~5.22 and 5.22. Moreover, in the assay with FRA1:JUN, the “effect on FRA1:JUN interaction (isPLA)” value is “did not significantly affect”. Further, the “shift of MAX thermophoresis relative to DMSO (MYC:MAX MST)” value at MYCbHLHZip:MAXbHLHZip was “less effective”.
